Results as given in patent US20090247472A1, “TYPE 1, 4-NAPHTOQUINONE COMPOUNDS, COMPOSITIONS COMPRISING THEM AND USE OF THESE COMPOUNDS AS ANTI-CANCER AGENTS” (FLUOFARMA, priority 2006, published 2009).

Experiments:
Format in all cases: cell-based
cells [1] = test: Sub-G1 apoptosis test (DNA fragmentation, fluorescent DNA intercalator), Example 60; conditions: for Activity (sub-Gl): apoptosis, DNA fragmentation by fluorescence; for pro-apoptotic activity (in words): conclusion from the tests of Example 60
Description: The biological tests on activity (Sub-G1) relate to measurement of apoptosis. For this purpose, a fluorescent tracer, a DNA intercalator, makes it possible to display the fragmentation of the DNA. This fragmentation of the DNA results from the induction of the apoptotic phenomenon in the cells. The cells are incubated in the presence of various concentrations of the compounds presented above. The measurement of the apoptosis in the cells is monitored by measuring the fluorescence, thus making it possible to determine the activity of the compounds in […]. The activity tests (sub-G1) on certain compounds are presented below.

cells [2] = test: Cell proliferation by multiplexed flow cytometry (dilution of a fluorescent tracer), Example 61
Description: (§1) The activities are measured by multiplexed flow cytometry tests, by coupling the measurement of apoptosis and cell proliferation. The cell proliferation is measured by monitoring the dilution of a specific fluorescent tracer during the cell divisions: • the cells are incubated in the presence of several concentrations of compounds, then • the measurements of apoptosis and cell proliferation are made simultaneously by the flow cytometry technique; specimen dose/response curves for the action of the compounds on apoptosis and on cell proliferation are obtained.

cells [3] = test: Apoptosis (sub-G1) by multiplexed flow cytometry, Example 61
Description: as §1

[4] = conclusion from the tests of Example 61

| Compound | Activity (sub-Gl) (cells [1]) | pro-apoptotic activity (in words) (cells [1]) | Activity (prolif at 24 h) (cells [2]; cell proliferation at 24 h, flow cytometry) | anti-proliferative activity (in words) (cells [2]; [4]) | Activity (sub-Gl) (cells [3]; apoptosis, multiplexed flow cytometry) | pro-apoptotic activity (in words) (cells [3]; [4]) |
| --- | --- | --- | --- | --- | --- | --- |
| CC1=C(CNC(=O)C(N)CO)C(=O)c2ccccc2C1=O.Cl [Example 18, 2-methyl-3-(L-serinyl-aminomethyl)-1,4-naphthoquinone chlorhydrate] | 11.8 µM | pro-apoptotic activity | – | – | – | – |
| CC1=C(CNC(=O)C(C)N)C(=O)c2ccccc2C1=O.Cl [Example 17, 2-methyl-3-(L-alaninyl-aminomethyl)-1,4-naphthoquinone chlorhydrate] | 13.3 µM | pro-apoptotic activity | – | – | – | – |
| CC1=C(CNC(=O)C(N)C(C)O)C(=O)c2ccccc2C1=O [Example 20, 2-methyl-3-(L-threoninyl-aminomethyl)-1,4-naphthoquinone chlorohydrate] | 12.2 µM | pro-apoptotic activity | – | – | – | – |
| CC1=C(CCNC(=O)CN)C(=O)c2ccccc2C1=O.Cl [Example 26, 2-methyl-3-(glycinyl-aminoethyl)-1,4-naphthoquinone chlorohydrate] | – | – | 12.3 µM | anti-proliferative activity | 11.8 µM | pro-apoptotic |
| CC1=C(CNC(=O)C(N)C(C)C)C(=O)c2ccccc2C1=O.Cl [Example 19, 2-methyl-3-(D-valinyl-aminomethyl)-1,4-naphthoquinone chlorhydrate] | 12 µM | pro-apoptotic activity | – | – | – | – |
